Measurements from PMC11842588, “A first-in-class selective inhibitor of ERK1/2 and ERK5 overcomes drug resistance with a single-molecule strategy” (Signal Transduction and Targeted Therapy, 2025).

Tests used:
Assay in all cases: Kinase profiling
Format in all cases: biochemical
CHK1(h) = target: T1, CHK1(h) (Homo sapiens, UniProt O14757)
T1 construct: purchased Eurofins Cerep SA (KinaseProfiler)
Protocol: (§1) 380 kinases inhibitory activities of SKLB-D18 were conducted by Eurofins Cerep SA. The result was illustrated by kinase tree (http://www.kinhub.org/kinmap/).

GRK3(h) = target: T2, GRK3(h) (Homo sapiens, UniProt P35626)
T2 construct: purchased Eurofins Cerep SA (KinaseProfiler)
Protocol: as §1

TAF1L(h) = target: T3, TAF1L(h) (Homo sapiens, UniProt Q8IZX4)
T3 construct: purchased Eurofins Cerep SA (KinaseProfiler)
Protocol: as §1

CSK(h) = target: T4, CSK(h) (Homo sapiens, UniProt P41240)
T4 construct: purchased Eurofins Cerep SA (KinaseProfiler)
Protocol: as §1

CDK9/cyclin T1(h) = target: T5, CDK9/cyclin T1(h) (Homo sapiens, UniProt P50750)
T5 construct: purchased Eurofins Cerep SA (KinaseProfiler)
Protocol: as §1

DYRK2(h) = target: T6, DYRK2(h) (Homo sapiens, UniProt Q92630)
T6 construct: purchased Eurofins Cerep SA (KinaseProfiler)
Protocol: as §1

AAK1(h) = target: T7, AAK1(h) (Homo sapiens, UniProt Q2M2I8)
T7 construct: purchased Eurofins Cerep SA (KinaseProfiler)
Protocol: as §1

PrKX(h) = target: T8, PrKX(h) (Homo sapiens, UniProt P51817)
T8 construct: purchased Eurofins Cerep SA (KinaseProfiler)
Protocol: as §1

CDK18/cyclinY(h) = target: T9, CDK18/cyclinY(h) (Homo sapiens, UniProt Q07002)
T9 construct: purchased Eurofins Cerep SA (KinaseProfiler)
Protocol: as §1

GRK2(h) = target: T10, GRK2(h) (Homo sapiens, UniProt P25098)
T10 construct: purchased Eurofins Cerep SA (KinaseProfiler)
Protocol: as §1

TYK2(h) = target: T11, TYK2(h) (Homo sapiens, UniProt P29597)
T11 construct: purchased Eurofins Cerep SA (KinaseProfiler)
Protocol: as §1

CaMKIγ(h) = target: T12, CaMKIγ(h) (Homo sapiens, UniProt Q96NX5)
T12 construct: purchased Eurofins Cerep SA (KinaseProfiler)
Protocol: as §1

EphA4(h) = target: T13, EphA4(h) (Homo sapiens, UniProt P54764)
T13 construct: purchased Eurofins Cerep SA (KinaseProfiler)
Protocol: as §1

EphB4(h) = target: T14, EphB4(h) (Homo sapiens, UniProt P54760)
T14 construct: purchased Eurofins Cerep SA (KinaseProfiler)
Protocol: as §1

DDR1(h) = target: T15, DDR1(h) (Homo sapiens, UniProt Q08345)
T15 construct: purchased Eurofins Cerep SA (KinaseProfiler)
Protocol: as §1

CDKL3(h) = target: T16, CDKL3(h) (Homo sapiens, UniProt Q8IVW4)
T16 construct: purchased Eurofins Cerep SA (KinaseProfiler)
Protocol: as §1

MLK4(h) = target: T17, MLK4(h) (Homo sapiens, UniProt Q5TCX8)
T17 construct: purchased Eurofins Cerep SA (KinaseProfiler)
Protocol: as §1

TGFBR2(h) = target: T18, TGFBR2(h) (Homo sapiens, UniProt P37173)
T18 construct: purchased Eurofins Cerep SA (KinaseProfiler)
Protocol: as §1

CDK14/cyclinY(h) = target: T19, CDK14/cyclinY(h) (Homo sapiens, UniProt O94921)
T19 construct: purchased Eurofins Cerep SA (KinaseProfiler)
Protocol: as §1

Axl(h) = target: T20, Axl(h) (Homo sapiens, UniProt P30530)
T20 construct: purchased Eurofins Cerep SA (KinaseProfiler)
Protocol: as §1

SAPK4(h) = target: T21, SAPK4(h) (Homo sapiens, UniProt O15264)
T21 construct: purchased Eurofins Cerep SA (KinaseProfiler)
Protocol: as §1

PAK5(h) = target: T22, PAK5(h) (Homo sapiens, UniProt Q9P286)
T22 construct: purchased Eurofins Cerep SA (KinaseProfiler)
Protocol: as §1

Pyk2(h) = target: T23, Pyk2(h) (Homo sapiens, UniProt Q14289)
T23 construct: purchased Eurofins Cerep SA (KinaseProfiler)
Protocol: as §1

Mer(h) = target: T24, Mer(h) (Homo sapiens, UniProt Q12866)
T24 construct: purchased Eurofins Cerep SA (KinaseProfiler)
Protocol: as §1

MST2(h) = target: T25, MST2(h) (Homo sapiens, UniProt Q13188)
T25 construct: purchased Eurofins Cerep SA (KinaseProfiler)
Protocol: as §1

TAO2(h) = target: T26, TAO2(h) (Homo sapiens, UniProt Q9UL54)
T26 construct: purchased Eurofins Cerep SA (KinaseProfiler)
Protocol: as §1

PAK1(h) = target: T27, PAK1(h) (Homo sapiens, UniProt Q13153)
T27 construct: purchased Eurofins Cerep SA (KinaseProfiler)
Protocol: as §1

MLCK(h) = target: T28, MLCK(h) (Homo sapiens, UniProt Q9H1R3)
T28 construct: purchased Eurofins Cerep SA (KinaseProfiler)
Protocol: as §1

Met(h) = target: T29, Met(h) (Homo sapiens, UniProt P08581)
T29 construct: purchased Eurofins Cerep SA (KinaseProfiler)
Protocol: as §1

SIK2(h) = target: T30, SIK2(h) (Homo sapiens, UniProt Q9H0K1)
T30 construct: purchased Eurofins Cerep SA (KinaseProfiler)
Protocol: as §1

GRK5(h) = target: T31, GRK5(h) (Homo sapiens, UniProt P34947)
T31 construct: purchased Eurofins Cerep SA (KinaseProfiler)
Protocol: as §1

Plk3(h) = target: T32, Plk3(h) (Homo sapiens, UniProt Q9H4B4)
T32 construct: purchased Eurofins Cerep SA (KinaseProfiler)
Protocol: as §1

RIPK1(h) = target: T33, RIPK1(h) (Homo sapiens, UniProt Q13546)
T33 construct: purchased Eurofins Cerep SA (KinaseProfiler)
Protocol: as §1

PRKG2(h) = target: T34, PRKG2(h) (Homo sapiens, UniProt Q13237)
T34 construct: purchased Eurofins Cerep SA (KinaseProfiler)
Protocol: as §1

MYLK2(h) = target: T35, MYLK2(h) (Homo sapiens, UniProt Q9H1R3)
T35 construct: purchased Eurofins Cerep SA (KinaseProfiler)
Protocol: as §1

RIPK2(h) = target: T36, RIPK2(h) (Homo sapiens, UniProt O43353)
T36 construct: purchased Eurofins Cerep SA (KinaseProfiler)
Protocol: as §1

CaMKIβ(h) = target: T37, CaMKIβ(h) (Homo sapiens, UniProt Q6P2M8)
T37 construct: purchased Eurofins Cerep SA (KinaseProfiler)
Protocol: as §1

Yes(h) = target: T38, Yes(h) (Homo sapiens, UniProt P07947)
T38 construct: purchased Eurofins Cerep SA (KinaseProfiler)
Protocol: as §1

CHK2(h) = target: T39, CHK2(h) (Homo sapiens, UniProt O96017)
T39 construct: purchased Eurofins Cerep SA (KinaseProfiler)
Protocol: as §1

Abl(h) = target: T40, Abl(h) (Homo sapiens, UniProt P00519)
T40 construct: purchased Eurofins Cerep SA (KinaseProfiler)
Protocol: as §1

TLK1(h) = target: T41, TLK1(h) (Homo sapiens, UniProt Q9UKI8)
T41 construct: purchased Eurofins Cerep SA (KinaseProfiler)
Protocol: as §1

T32 sequence (Q9H4B4 whole entry): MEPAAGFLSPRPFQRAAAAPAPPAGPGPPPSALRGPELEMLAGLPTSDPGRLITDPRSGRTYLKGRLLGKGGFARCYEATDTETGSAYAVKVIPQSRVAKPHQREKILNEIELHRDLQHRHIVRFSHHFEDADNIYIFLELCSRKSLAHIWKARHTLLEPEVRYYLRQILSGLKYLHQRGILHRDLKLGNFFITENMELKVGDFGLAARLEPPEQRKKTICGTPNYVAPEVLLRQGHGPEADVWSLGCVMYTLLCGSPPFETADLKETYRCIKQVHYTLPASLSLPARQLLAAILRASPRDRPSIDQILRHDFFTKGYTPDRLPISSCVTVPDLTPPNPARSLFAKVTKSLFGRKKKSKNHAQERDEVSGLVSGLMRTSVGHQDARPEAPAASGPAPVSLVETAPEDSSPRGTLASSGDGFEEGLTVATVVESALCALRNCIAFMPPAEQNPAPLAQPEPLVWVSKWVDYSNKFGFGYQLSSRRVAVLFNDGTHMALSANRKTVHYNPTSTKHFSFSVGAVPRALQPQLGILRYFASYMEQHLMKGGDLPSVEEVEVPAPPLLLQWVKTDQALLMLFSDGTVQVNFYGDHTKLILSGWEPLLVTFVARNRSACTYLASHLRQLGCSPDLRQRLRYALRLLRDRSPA
T23 sequence (Q14289 whole entry): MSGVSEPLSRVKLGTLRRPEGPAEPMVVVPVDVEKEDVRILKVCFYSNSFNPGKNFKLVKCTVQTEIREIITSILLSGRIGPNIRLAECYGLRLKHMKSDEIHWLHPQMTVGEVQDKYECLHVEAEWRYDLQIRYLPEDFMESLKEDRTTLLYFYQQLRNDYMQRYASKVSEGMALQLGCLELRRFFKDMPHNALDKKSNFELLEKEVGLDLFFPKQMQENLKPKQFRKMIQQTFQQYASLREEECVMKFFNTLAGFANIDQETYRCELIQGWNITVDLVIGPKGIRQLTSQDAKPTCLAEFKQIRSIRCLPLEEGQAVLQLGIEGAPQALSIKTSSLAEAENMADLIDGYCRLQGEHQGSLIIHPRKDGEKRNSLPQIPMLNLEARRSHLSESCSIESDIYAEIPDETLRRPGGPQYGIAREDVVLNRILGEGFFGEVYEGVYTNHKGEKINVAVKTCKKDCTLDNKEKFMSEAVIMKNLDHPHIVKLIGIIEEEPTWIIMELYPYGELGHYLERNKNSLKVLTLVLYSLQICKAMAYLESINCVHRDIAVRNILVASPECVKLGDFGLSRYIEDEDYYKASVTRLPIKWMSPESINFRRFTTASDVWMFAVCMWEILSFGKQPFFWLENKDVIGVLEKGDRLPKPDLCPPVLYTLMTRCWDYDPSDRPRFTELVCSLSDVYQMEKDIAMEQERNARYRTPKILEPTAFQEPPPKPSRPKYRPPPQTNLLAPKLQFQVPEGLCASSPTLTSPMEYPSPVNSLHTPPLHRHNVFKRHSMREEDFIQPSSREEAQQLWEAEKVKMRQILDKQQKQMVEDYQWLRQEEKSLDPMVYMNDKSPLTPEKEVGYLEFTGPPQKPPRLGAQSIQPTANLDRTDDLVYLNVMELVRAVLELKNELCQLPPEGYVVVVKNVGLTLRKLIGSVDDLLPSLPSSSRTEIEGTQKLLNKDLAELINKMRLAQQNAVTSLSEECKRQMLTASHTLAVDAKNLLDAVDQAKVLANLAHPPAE
T22 sequence (Q9P286 whole entry): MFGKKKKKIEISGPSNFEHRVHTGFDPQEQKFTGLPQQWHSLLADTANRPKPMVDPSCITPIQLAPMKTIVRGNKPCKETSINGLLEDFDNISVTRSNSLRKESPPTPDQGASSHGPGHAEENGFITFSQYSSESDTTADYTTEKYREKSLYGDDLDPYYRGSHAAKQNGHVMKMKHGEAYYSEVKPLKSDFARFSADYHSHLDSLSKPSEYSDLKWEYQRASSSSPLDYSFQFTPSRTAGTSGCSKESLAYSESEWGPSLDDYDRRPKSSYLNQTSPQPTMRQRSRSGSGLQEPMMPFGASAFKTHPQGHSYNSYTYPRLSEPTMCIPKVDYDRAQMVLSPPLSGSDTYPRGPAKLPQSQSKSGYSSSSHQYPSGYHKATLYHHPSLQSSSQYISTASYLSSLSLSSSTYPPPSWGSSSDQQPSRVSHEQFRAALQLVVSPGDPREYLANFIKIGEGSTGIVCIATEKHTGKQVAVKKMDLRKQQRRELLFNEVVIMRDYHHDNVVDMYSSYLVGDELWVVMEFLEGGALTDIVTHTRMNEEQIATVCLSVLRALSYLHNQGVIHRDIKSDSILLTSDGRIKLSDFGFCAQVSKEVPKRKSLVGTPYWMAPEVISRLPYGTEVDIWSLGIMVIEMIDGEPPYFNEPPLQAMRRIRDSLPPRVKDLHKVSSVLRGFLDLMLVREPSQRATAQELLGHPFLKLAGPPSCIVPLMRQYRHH
T8 sequence (P51817 whole entry): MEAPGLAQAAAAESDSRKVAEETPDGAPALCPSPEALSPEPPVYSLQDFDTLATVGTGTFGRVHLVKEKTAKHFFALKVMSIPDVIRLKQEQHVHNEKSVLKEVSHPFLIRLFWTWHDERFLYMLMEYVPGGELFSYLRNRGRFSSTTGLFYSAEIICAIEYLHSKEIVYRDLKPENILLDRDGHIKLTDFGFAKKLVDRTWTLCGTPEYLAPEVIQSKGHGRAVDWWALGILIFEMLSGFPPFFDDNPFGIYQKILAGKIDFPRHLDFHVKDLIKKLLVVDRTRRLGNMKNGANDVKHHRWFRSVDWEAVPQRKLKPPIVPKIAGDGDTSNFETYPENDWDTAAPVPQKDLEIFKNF
T15 sequence (Q08345 19-913): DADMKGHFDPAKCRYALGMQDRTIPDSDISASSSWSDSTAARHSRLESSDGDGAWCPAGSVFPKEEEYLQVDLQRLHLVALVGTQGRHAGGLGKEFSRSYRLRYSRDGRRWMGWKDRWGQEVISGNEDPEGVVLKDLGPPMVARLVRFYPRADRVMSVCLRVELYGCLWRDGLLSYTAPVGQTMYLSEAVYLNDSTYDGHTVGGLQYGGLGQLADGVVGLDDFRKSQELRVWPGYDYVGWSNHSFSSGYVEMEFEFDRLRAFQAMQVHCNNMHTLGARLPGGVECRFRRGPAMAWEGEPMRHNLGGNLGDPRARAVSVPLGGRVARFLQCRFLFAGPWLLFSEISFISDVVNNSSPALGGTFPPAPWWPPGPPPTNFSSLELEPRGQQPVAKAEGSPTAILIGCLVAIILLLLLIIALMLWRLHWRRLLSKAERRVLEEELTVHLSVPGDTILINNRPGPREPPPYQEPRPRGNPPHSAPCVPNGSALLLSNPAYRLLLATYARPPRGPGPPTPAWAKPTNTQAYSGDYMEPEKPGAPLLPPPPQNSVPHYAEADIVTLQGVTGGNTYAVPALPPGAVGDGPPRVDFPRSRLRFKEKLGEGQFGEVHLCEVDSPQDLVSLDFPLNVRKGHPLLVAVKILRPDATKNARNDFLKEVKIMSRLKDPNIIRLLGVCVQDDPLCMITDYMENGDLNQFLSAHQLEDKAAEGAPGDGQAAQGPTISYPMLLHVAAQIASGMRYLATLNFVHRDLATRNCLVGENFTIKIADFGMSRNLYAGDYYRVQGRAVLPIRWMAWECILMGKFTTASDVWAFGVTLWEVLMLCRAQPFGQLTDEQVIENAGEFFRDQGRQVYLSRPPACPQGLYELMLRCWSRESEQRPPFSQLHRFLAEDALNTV
T29 sequence (P08581 25-1390): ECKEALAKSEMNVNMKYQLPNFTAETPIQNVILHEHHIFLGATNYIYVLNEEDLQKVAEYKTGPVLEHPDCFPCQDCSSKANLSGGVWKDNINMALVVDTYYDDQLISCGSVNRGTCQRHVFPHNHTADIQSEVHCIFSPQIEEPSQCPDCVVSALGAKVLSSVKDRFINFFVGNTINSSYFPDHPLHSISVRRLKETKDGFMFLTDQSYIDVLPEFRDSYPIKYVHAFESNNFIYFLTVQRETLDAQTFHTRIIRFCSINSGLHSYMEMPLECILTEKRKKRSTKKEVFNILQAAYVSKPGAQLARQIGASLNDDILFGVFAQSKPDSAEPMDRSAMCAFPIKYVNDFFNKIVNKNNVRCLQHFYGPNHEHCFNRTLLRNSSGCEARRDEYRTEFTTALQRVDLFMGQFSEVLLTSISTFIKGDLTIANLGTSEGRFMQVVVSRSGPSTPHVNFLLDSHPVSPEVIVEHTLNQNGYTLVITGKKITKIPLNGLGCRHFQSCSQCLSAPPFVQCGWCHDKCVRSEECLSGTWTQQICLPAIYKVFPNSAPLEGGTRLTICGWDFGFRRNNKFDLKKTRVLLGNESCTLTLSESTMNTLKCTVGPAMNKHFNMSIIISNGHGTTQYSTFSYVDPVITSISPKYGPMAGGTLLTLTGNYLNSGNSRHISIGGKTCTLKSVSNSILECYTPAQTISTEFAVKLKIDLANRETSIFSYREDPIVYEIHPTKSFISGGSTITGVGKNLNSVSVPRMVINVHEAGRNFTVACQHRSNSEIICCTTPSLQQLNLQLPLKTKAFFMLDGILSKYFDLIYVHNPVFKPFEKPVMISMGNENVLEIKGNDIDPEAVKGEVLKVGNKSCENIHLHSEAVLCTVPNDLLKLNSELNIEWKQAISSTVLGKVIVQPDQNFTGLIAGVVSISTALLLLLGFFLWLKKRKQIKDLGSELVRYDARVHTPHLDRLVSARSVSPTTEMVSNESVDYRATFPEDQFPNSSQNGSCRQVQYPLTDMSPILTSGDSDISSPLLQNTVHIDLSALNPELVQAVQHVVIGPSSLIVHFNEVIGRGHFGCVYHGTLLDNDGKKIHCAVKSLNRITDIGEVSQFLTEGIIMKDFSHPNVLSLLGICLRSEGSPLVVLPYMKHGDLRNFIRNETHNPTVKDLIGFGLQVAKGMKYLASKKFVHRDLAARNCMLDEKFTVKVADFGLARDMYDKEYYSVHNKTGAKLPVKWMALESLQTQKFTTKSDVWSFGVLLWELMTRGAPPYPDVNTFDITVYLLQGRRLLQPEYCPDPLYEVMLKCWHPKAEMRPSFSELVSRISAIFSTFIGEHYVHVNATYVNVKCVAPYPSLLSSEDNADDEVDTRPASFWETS

## CN(C)Cc1cccc(Nc2ncc(Cl)c(-c3csc(C(=O)NN4CCOCC4)c3)n2)c1 [SKLB-D18, 4-(5-chloro-2-((3-((dimethylamino)methyl)phenyl)amino)pyrimidin-4-yl)-N-morpholinothiophene-2-carboxamide]
CHK1(h)
  inhibition at 1 µM: 36%
GRK3(h)
  inhibition at 1 µM: 2%
TAF1L(h)
  inhibition at 1 µM: 53%
CSK(h)
  inhibition at 1 µM: -11%
CDK9/cyclin T1(h)
  inhibition at 1 µM: 28%
DYRK2(h)
  inhibition at 1 µM: 41%
AAK1(h)
  inhibition at 1 µM: 58%
PrKX(h)
  inhibition at 1 µM: 43%
CDK18/cyclinY(h)
  inhibition at 1 µM: 48%
GRK2(h)
  inhibition at 1 µM: 3%
TYK2(h)
  inhibition at 1 µM: 83%
CaMKIγ(h)
  inhibition at 1 µM: 12%
EphA4(h)
  inhibition at 1 µM: 6%
EphB4(h)
  inhibition at 1 µM: 9%
DDR1(h)
  inhibition at 1 µM: 35%
CDKL3(h)
  inhibition at 1 µM: 54%
MLK4(h)
  inhibition at 1 µM: 24%
TGFBR2(h)
  inhibition at 1 µM: 30%
CDK14/cyclinY(h)
  inhibition at 1 µM: 58%
Axl(h)
  inhibition at 1 µM: 36%
SAPK4(h)
  inhibition at 1 µM: 53%
PAK5(h)
  inhibition at 1 µM: 26%
Pyk2(h)
  inhibition at 1 µM: 46%
Mer(h)
  inhibition at 1 µM: 69%
MST2(h)
  inhibition at 1 µM: 40%
TAO2(h)
  inhibition at 1 µM: 64%
PAK1(h)
  inhibition at 1 µM: 45%
MLCK(h)
  inhibition at 1 µM: 16%
Met(h)
  inhibition at 1 µM: 61%
SIK2(h)
  inhibition at 1 µM: 67%
GRK5(h)
  inhibition at 1 µM: -1%
Plk3(h)
  inhibition at 1 µM: 6%
RIPK1(h)
  inhibition at 1 µM: 9%
PRKG2(h)
  inhibition at 1 µM: 18%
MYLK2(h)
  inhibition at 1 µM: 68%
RIPK2(h)
  inhibition at 1 µM: 61%
CaMKIβ(h)
  inhibition at 1 µM: 1%
Yes(h)
  inhibition at 1 µM: 65%
CHK2(h)
  inhibition at 1 µM: 19%
Abl(h)
  inhibition at 1 µM: 45%
TLK1(h)
  inhibition at 1 µM: 24%
